Measurements: patent publication US9605017B2, “2′, 5′-dideoxy-5-fluorouridine derivatives having cytotoxic activity, a process for the manufacture thereof and application thereof” (ADAM MICKIEWICZ UNIVERSITY, priority 2014, dated 2017)
≈ marks a conversion by molar mass, not a printed value. Where “and” joins values, the source holds several entries; their conditions need not be identical. Equal values may be shown once. Read-outs that look alike come from different tables or passages of the source.

Columns and labels:
MCF-7 (breast cancer) = assay: Cytotoxicity test with sulphorhodamine B, 72 h, MCF-7 line; details: for IC50: Homo sapiens
Method: (§1) Cytotoxic activity tests were performed using the following cancer cell lines: MCF-7 (breast cancer), HeLa (cervical cancer) A549 (lung cancer) and KB (nasopharynx cancer) obtained from ECACC (European Collection of Cell Cultures).
(§2) Cytotoxicity tests were carried out using a standard procedure with sulphorhodamine B. They involved incubation of the cancer cell lines in the logarithmic growth phase for 72 hours with the compound tested and, subsequently, spectrophotometric determination of the degree of cell growth inhibition using adsorption of a dye (sulphorhodamine B) which binds cellular proteins.
(§3) Cells of the cell line tested in the logarithmic growth phase were seeded onto 24-well plates in a quantity of 20,000 cells/2 mL of the growth medium per well and, subsequently, incubated in an incubator at 37° C., in the 5% CO2 atmosphere for 24 hours.
(§4) Solutions of the test compounds were prepared in DMSO in the following concentration range: 0.05; 0.1; 0.5; 1; 5; 10; 50; 100; 500 μM.
(§5) The cells of the lines tested were treated with the solutions of the test compounds in a laminar-flow chamber which ensured sterile working conditions according to the following procedure: the first three wells were used as a control: they contained 20 μL of DMSO only; successive solutions of the test compound were added to subsequent wells (20 μL), starting with the lowest concentration (three wells for each concentration level). Subsequently, the plates were placed in an incubator for 72 hours.
(§6) After the end of incubation, the adhered cells were fixed by adding 500 μL of cold (4° C.) 50% trichloroacetic acid (TCA) and incubated at 4° C. for 1 hour. Subsequently, each well was rinsed with sterile water and dried. The operation was repeated five times. The fixed cells were stained for 30 minutes by adding 500 μL of 0.4% of a dye solution (sulphorhodamine B) dissolved in 1% acetic acid. Any unbound dye was removed by decanting it from the plate, and the cells were washed 4 times with 1% acetic acid. Subsequently, the plates were dried in air for approx. 5 minutes. Any unbound dye was dissolved by adding 1500 μL of 10 mM Tris-base buffer (trishydroxymethylaminomethane) to each well and shaken using an orbital shaker for 5 minutes. Subsequently, 200 μL of solution from each well was transferred to each of two wells on a new 96-well plate and absorption of the solutions was determined spectrophotometrically at a wavelength of 490-530 nm using a plate reader. Percentage inhibition of cell growth by the test compound was calculated assuming the absorption of the control solution as 100%.
(§7) Cytotoxicity tests for the other compounds and cell lines were performed following an identical procedure.
(§8) Depending on the type of the cell line, the following growth media were used: • the MCF-7 line was grown in Dulbecco's Modified Eagle's Medium (DME) from Sigma (cat. no. D5796) • the HeLa, A549 and KB lines were grown in RPMI-1640 Medium from Sigma (cat. no. R8758).
(§9) IC50 values, being concentration of a compound needed to obtain 50% inhibition of cell growth, were determined for all the derivatives tested.
(§10) To enable comparison, identical tests were performed using known cytotoxic agents: 5-fluoro-2′-deoxyuridine, 5-fluorouracil and 5′-azido-2′,5′-dideoxy-5-fluorouridine.
(§11) The values are average results of three independent determinations.

HeLa (cervical cancer) = assay: Cytotoxicity test with sulphorhodamine B, 72 h, HeLa line; details: for IC50: Homo sapiens, HeLa
Method: as §1, §2, §3, §4, §5, §6, §7, §8, §9, §10, §11

KB (nasopharynx cancer) = assay: Cytotoxicity test with sulphorhodamine B, 72 h, KB line; details: read-out: Cytotoxic activity, IC50 KB (nasopharynx cancer)
Method: as §1, §2, §3, §4, §5, §6, §7, §8, §9, §10, §11

A549 (lung cancer) = assay: Cytotoxicity test with sulphorhodamine B, 72 h, A549 line; details: Homo sapiens
Method: as §1, §2, §3, §4, §5, §6, §7, §8, §9, §10, §11

[1] = MCF7, 72 h, read-out: Cytotoxic activity, IC50 MCF-7 line (breast cancer)
[2] = MCF7, read-out: Cytotoxic activity class, MCF-7 line (breast cancer)
[3] = 72 h, read-out: Cytotoxic activity, IC50 HeLa (cervical cancer)
[4] = read-out: Cytotoxic activity class, HeLa (cervical cancer)
[5] = A549, 72 h, read-out: Cytotoxic activity, IC50 A549 (lung cancer)
[6] = A549, read-out: Cytotoxic activity class, A549 (lung cancer)

Row | Compound | IC50 (MCF-7 (breast cancer); [1]) | IC50 (MCF-7 (breast cancer); [2]) | IC50 (HeLa (cervical cancer); [3]) | IC50 (HeLa (cervical cancer); [4]) | IC50 (KB (nasopharynx cancer)) | IC50 (A549 (lung cancer); [5]) | IC50 (A549 (lung cancer); [6]) | higher activity than 5AddFU, breast cancer cells (MCF-7 (breast cancer); relative to 5AddFU) | higher activity than 5FU, breast cancer cells (MCF-7 (breast cancer); relative to 5FU) | higher activity than 5FdU, breast cancer cells (MCF-7 (breast cancer); relative to 5FdU) | activity compared to 5FU, cervical cancer cells (HeLa (cervical cancer); relative to 5FU)
1 | C=CC1C[N@@]2CCC1C[C@H]2[C@H](OCc1cn(CC2OC(n3cc(F)c(=O)[nH]c3=O)CC2O)nn1)c1ccnc2ccccc12 (stereo partly shown) [PCD5AFU, 5-Fluoro-1-(4-hydroxy-5-{4-[quinolin-4-yl-(5-vinyl-1-aza-bicyclo[2.2.2]oct-2-yl)-methoxymethyl]-[1,2,3]triazol-1-ylmethyl}-tetrahydrofuran-2-yl)-1H-pyrimidine-2,4-dione] | 11.8 µg/mL and 19.6 µM | 4 to 30 µg/mL (≈ 6.63 to 49.7 µM) | 18.8 µg/mL and 29.8 µM | 4 to 30 µg/mL (≈ 6.63 to 49.7 µM) | 17.5 µg/mL and 29 µM | 17.8 µg/mL and 29.5 µM | 4 to 30 µg/mL (≈ 6.63 to 49.7 µM) | – | – | – | –
2 | C=CC1C[N@@]2CCC1C[C@@H]2[C@@H](OCc1cn(CC2OC(n3cc(F)c(=O)[nH]c3=O)CC2O)nn1)c1ccnc2ccccc12 (stereo partly shown) [PCN5AFU, 5-Fluoro-1-(4-hydroxy-5-{4-[quinolin-4-yl-(5-vinyl-1-aza-bicyclo[2.2.2]oct-2-yl)-methoxymethyl]-[1,2,3]triazol-1-ylmethyl}-tetrahydrofuran-2-yl)-1H-pyrimidine-2,4-dione] | 2.4 µg/mL and 3.98 µM | < 4 µg/mL | 2.7 µg/mL and 4.47 µM | < 4 µg/mL | 2.4 µg/mL and 3.98 µM | 2.7 µg/mL and 4.47 µM | < 4 µg/mL | 3 fold | 1.4 fold | 1.6 fold | comparable activity
3 | C=CC1C[N@@]2CCC1C[C@@H]2[C@@H](OCc1cn(CC2OC(n3cc(F)c(=O)[nH]c3=O)CC2O)nn1)c1ccnc2ccc(OC)cc12 (stereo partly shown) [PQD5AFU, 5-Fluoro-1-(4-hydroxy-5-{4-[(6-methoxy-quinolin-4-yl)-(5-vinyl-1-aza-bicyclo[2.2.2]oct-2-yl)-methoxymethyl]-[1,2,3]triazol-1-ylmethyl}-tetrahydrofuran-2-yl)-1H-pyrimidine-2,4-dione] | 16 µg/mL and 25.2 µM | 4 to 30 µg/mL (≈ 6.31 to 47.3 µM) | 19.1 µg/mL and 30.1 µM | 4 to 30 µg/mL (≈ 6.31 to 47.3 µM) | 19.5 µg/mL and 30.8 µM | 19.7 µg/mL and 31.1 µM | 4 to 30 µg/mL (≈ 6.31 to 47.3 µM) | – | – | – | –
4 | C=CC1C[N@@]2CCC1C[C@H]2[C@H](OCc1cn(CC2OC(n3cc(F)c(=O)[nH]c3=O)CC2O)nn1)c1ccnc2ccc(OC)cc12 (stereo partly shown) [PQN5AFU, 5-Fluoro-1-(4-hydroxy-5-{4-[(6-methoxy-quinolin-4-yl)-(5-vinyl-1-aza-bicyclo[2.2.2]oct-2-yl)-methoxymethyl]-[1,2,3]triazol-1-ylmethyl}-tetrahydrofuran-2-yl)-1H-pyrimidine-2,4-dione] | 27 µg/mL and 42.6 µM | 4 to 30 µg/mL (≈ 6.31 to 47.3 µM) | 29 µg/mL and 45.8 µM | 4 to 30 µg/mL (≈ 6.31 to 47.3 µM) | 31 µg/mL and 48.9 µM | 29.4 µg/mL and 46.4 µM | 4 to 30 µg/mL (≈ 6.31 to 47.3 µM) | – | – | – | –
5 | COc1ccc2nccc([C@H](O)[C@H]3CC4CCN3CC4c3cn(CC4OC(n5cc(F)c(=O)[nH]c5=O)CC4O)nn3)c2c1 (stereo partly shown) [QD5AFU, 5-Fluoro-1-[4-hydroxy-5-(4-{6-[hydroxy-(6-methoxy-quinolin-4-yl)-methyl]-1-aza-bicyclo[2.2.2]oct-3-yl}-[1,2,3]triazol-1-ylmethyl)-tetrahydrofuran-2-yl]-1H-pyrimidine-2,4-dione] | 6.1 µg/mL and 10.3 µM | 4 to 30 µg/mL (≈ 6.74 to 50.5 µM) | 7.3 µg/mL and 12.3 µM | 4 to 30 µg/mL (≈ 6.74 to 50.5 µM) | 8.9 µg/mL and 15 µM | 8 µg/mL and 13.5 µM | 4 to 30 µg/mL (≈ 6.74 to 50.5 µM) | – | – | – | –
6 | COc1ccc2nccc([C@@H](O)[C@@H]3CC4CC[N@]3CC4c3cn(CC4OC(n5cc(F)c(=O)[nH]c5=O)CC4O)nn3)c2c1 (stereo partly shown) [QN5AFU, 5-Fluoro-1-[4-hydroxy-5-(4-{6-[hydroxy-(6-methoxy-quinolin-4-yl)-methyl]-1-aza-bicyclo[2.2.2]oct-3-yl}-[1,2,3]triazol-1-ylmethyl)-tetrahydrofuran-2-yl]-1H-pyrimidine-2,4-dione] | 12 µg/mL and 20.2 µM | 4 to 30 µg/mL (≈ 6.74 to 50.5 µM) | 12 µg/mL and 20.2 µM | 4 to 30 µg/mL (≈ 6.74 to 50.5 µM) | 12.6 µg/mL and 21.2 µM | 16 µg/mL and 26.9 µM | 4 to 30 µg/mL (≈ 6.74 to 50.5 µM) | – | – | – | –
